# Literature values, collected in patent US11375717B2, “Combinations of acaricides and insect growth regulators for control of fleas without emesis in animals” (Piedmont Animal Health Inc., priority 2017, dated 2022).
# Settings: 30 mg/kg in cats and 10 mg/kg in dogs
smiles,measurement,value
O=C(NC(=O)c1c(F)cccc1F)Nc1cc(Cl)c(OC(F)(F)C(F)C(F)(F)F)cc1Cl (stereo not shown) [Lufenuron],Emesis,common side effect
